Measured values: the NIST ThermoML archive (doi:10.1016/j.fluid.2018.08.011)
Several values for one entry are separate records, joined by “and”; a condition that tells them apart may be missing. Identical values can stand only once. ± gives the expanded uncertainty stated by the source.

Assays:
[1] = for surface tension liquid-gas: Drop volume; for mass density / speed of sound: 101.3 kPa, Liquid; for mass density: Vibrating tube method; for speed of sound: Frequency=3 MHz, Single path-length method
[2] = cn = amount concentration of the nth substance listed, in mol/dm3; details: Drop volume

O [water]
[1]
Details | mass density [kg/m3] | speed of sound [m/s] | surface tension liquid-gas
283.15 K | 999.707 ± 0.033 | – | 73.92 ± 0.28 mN/m
285.65 K | 999.444 ± 0.033 | 1457.3 ± 0.24 | –
290.65 K | 998.689 ± 0.034 | 1474.7 ± 0.23 | –
295.65 K | 997.658 ± 0.034 | 1490 ± 0.23 | –
298.15 K | – | – | 71.77 ± 0.28 mN/m
300.65 K | 996.376 ± 0.035 | 1503.3 ± 0.23 | –
305.65 K | 994.867 ± 0.036 | 1514.9 ± 0.23 | –
310.15 K | – | – | 70.13 ± 0.27 mN/m and 69.93 ± 0.39 mN/m
310.65 K | 993.147 ± 0.036 | 1524.7 ± 0.23 | –
313.15 K | – | 1529 ± 0.23 | –
315.65 K | 991.235 ± 0.037 | 1533 ± 0.23 | –
318.15 K | – | 1536.6 ± 0.23 | –
320.65 K | 989.14 ± 0.038 | 1539.8 ± 0.23 | –
323.15 K | 988.029 ± 0.039 | – | 68.15 ± 0.27 mN/m and 67.79 ± 0.39 mN/m

CCCCCCCCCCCCO[C@@H]1O[C@H](CO)[C@@H](O)[C@H](O)[C@H]1O [dodecyl beta.-D-glucopyranoside] + O
surface tension liquid-gas [mN/m], [2]
Details | 310.15 K | 323.15 K
c1 = 2.33e-05 | 52.97 ± 0.25 | 52.98 ± 0.24
c1 = 3.58e-05 | 46.13 ± 0.23 | 46.38 ± 0.23
c1 = 5.16e-05 | 41.28 ± 0.22 | 41.5 ± 0.22
c1 = 6.49e-05 | 38.47 ± 0.21 | 38.5 ± 0.2
c1 = 7.97e-05 | 35.61 ± 0.2 | –
c1 = 9.31e-05 | 34.42 ± 0.19 | 35.04 ± 0.2
c1 = 0.000106 | 33.04 ± 0.19 | 33.77 ± 0.19
c1 = 0.000123 | 31.7 ± 0.19 | 32.19 ± 0.19
c1 = 0.000131 | 31.19 ± 0.19 | 31.35 ± 0.19
c1 = 0.000146 | 29.75 ± 0.18 | 29.99 ± 0.18
c1 = 0.000162 | 30.12 ± 0.18 | 29.72 ± 0.18
c1 = 0.000169 | 29.25 ± 0.18 | 28.68 ± 0.18
c1 = 0.000177 | 29.51 ± 0.18 | 28.83 ± 0.18
c1 = 0.000187 | 29.14 ± 0.18 | 28.4 ± 0.18
c1 = 0.000198 | 29.09 ± 0.18 | 28 ± 0.17
c1 = 0.00021 | 29.52 ± 0.18 | 28.11 ± 0.17
c1 = 0.000216 | 29.36 ± 0.18 | 28.07 ± 0.18
c1 = 0.000227 | 29.03 ± 0.18 | 28.56 ± 0.17
c1 = 0.000241 | 29.02 ± 0.18 | 28.29 ± 0.18
c1 = 0.000258 | 29.1 ± 0.18 | 27.87 ± 0.18

O [water] + CCCCCCCCCCCCO[C@@H]1O[C@H](CO)[C@@H](O)[C@H](O)[C@H]1O
[2], c2 = 0
Details | surface tension liquid-gas [mN/m]
310.15 K | 69.93 ± 0.27
323.15 K | 67.79 ± 0.27
